# Data from US10160705B2, “Class of HDAC inhibitors expands the renal progenitor cells population and improves the rate of recovery from acute kidney injury” (University of Pittsburgh—Of the Commonwealth System of …, priority 2011, dated 2018).
# Experiments:
# [1] = system: kidney field; test: In situ hybridization for kidney markers (pax2a, pax8, cdh17, wt1a, slc4a4, slcl2a1); assay type: in vivo, zebrafish; details: 3 μM
# Protocol: PTBA was synthesized as described below. Hydroxyurea and aphidicolin were obtained from Sigma-Aldrich.
# (§1) In situ hybridization and immunocytochemistry: In situ hybridization was performed as previously described with some modifications.142 Hybridization temperature was 65° C. Embryos were blocked in 2% blocking reagent (Roche) with 5% sheep serum in MAB (100 mM maleic acid and 150 mM NaCl [pH 7.5]). Whole-mount immunocytochemistry with 1:25 mouse anti-α6F antibody (Developmental Studies Hybridoma Bank) and 1:100 Cy3 secondary antibody (Jackson ImmunoResearch) was performed as described previously.108 Embryos were embedded in JB-4 for sectioning per the manufacturer's instructions (Polysciences), sectioned at 5 μm, and mounted with Cytoseal 60 (Richard-Allan Scientific).
# [2] = system: lhx1a, pax2a, pax8, ntla; test: Relative qPCR in the trunk region of 10-somite embryos; assay type: in vivo, zebrafish; details: 3 μM
# Protocol: Several of the genes analyzed by qPCR, including lhx1a and pax2a, show expression in anterior regions of the embryo as well as the IM. To focus more specifically on effects in the IM, cDNA samples taken from the trunks of treated and control embryos were examined. Samples for trunk RNA extraction were prepared by cutting embryos just above the first somite with microscissors and discarding the anterior portion. The trunk portions were homogenized with a plastic microcentrifuge pestle in 500 μL of TRI reagent (Ambion), and RNA was isolated using an RNeasy Micro Kit (QIAGEN) per the manufacturer's instructions. 1 μg RNA was heated to 75° C. for 5 min and then placed on ice. […]
# Primer sets were designed using NetPrimer and Beacon Designer (ver. 7.51) primer analysis software (PREMIER Biosoft). […] Primer melting temperatures were maintained between 60° C. and 64° C. as determined by NetPrimer. […] The reference gene primer sets have been previously described (Tang, R., Dodd, A., Lai, D., McNabb, W. C. & Love, D. R. Validation of zebrafish (Danio rerio) reference genes for quantitative real-time RT-PCR normalization. Acta Biochim Biophys Sin (Shanghai) 39, 384-390, (2007)) with one modification. […]
# Relative gene expression was calculated using iQ5 software (ver. 2.0, Bio-Rad) to determine normalized expression levels (ΔΔCt method). […]
# [3] = system: RA-responsive genes, cyp26a1 and cmlc2; test: In situ hybridization for RA-responsive genes cyp26a1 and cmlc2 in 18-somite embryos; assay type: in vivo, zebrafish; details: 3 μM
# Protocol: as §1
# HDACis are believed to lower the threshold of RA necessary to activate transcription. If PTBA treatment facilitates activation of the RA pathway, then expression of genes responsive to RA signaling should change. […] In a previous study, cmlc2 expression was assessed for RAdependent effects in 18-somite embryos (Keegan, B. R., Feldman, J. L., Begemann, G., Ingham, P. W. & Yelon, D. Retinoic acid signaling restricts the cardiac progenitor pool. Science 307, 247-249, (2005)), therefore embryos were collected at the 18-somite stage for continuity. […]
# [4] = system: human HDACs; test: Fluorescence histone deacetylation assay with HeLa cell nuclear extract; assay type: biochemical
# Protocol: To evaluate this in vitro, the deacetylation of a fluorescent peptide substrate was measured in the presence of human HDACs.
# In vitro HDAC activity assays were performed using a fluorescence HDAC assay kit (Active Motif) according to the manufacturer's instructions. For maintaining compound solubility at 5 mM, the final DMSO concentration in all assay wells was increased to 5%. Fluorescence was detected using an M5 Plate Reader ([…])
compound,measurement,setting,value
"O=C(O)CCCSc1ccccc1 [UPHD-00020, 4-(phenylthio)butanoic acid (PTBA)]",expansion of slc4a4 (proximal tubule),[1]; 48 hpf,92%
same,pax2a expression at 24 hpf,[1]; treatment beginning at 16.5 hpf (15 somites),no kidney field expansion
same,pax2a expression at 24 hpf,[1]; treatment initiated between 2 hpf and 14 hpf (10 somites),expanded pax2a expression
same,increase in pax2a expression by qPCR,[2],almost two-fold increase
same,increase in relative lhx1a transcript by qPCR,[2],three-fold increase
same,"cmlc2 expression decreased, percent of treated embryos",[3],100%
same,"cyp26a1 expression increased, percent of treated embryos",[3],100%
same,"HDAC activity elicited by 10 μg HeLa extract, percent of the control value",[4]; 5 mM compound,30%
same,reduction of HDAC activity,[4]; millimolar concentrations,70%
